Laboratory results reported in patent publication US20240122182A1, “PESTICIDALLY ACTIVE HETEROCYCLIC DERIVATIVES WITH SULFUR CONTAINING SUBSTITUENTS” (SYNGENTA CROP PROTECTION AG, priority 2021, published 2024).

Tests used:
Format in all cases: in vivo
[1] = test system: Chilo suppressalis (Striped Rice Stemborer); assay: Activity against Chilo suppressalis (striped rice stemborer), artificial diet; settings: 144 h, application rate of 200 ppm, L2 larvae, 6 days after infestation, read-out: control (mortality, anti-feeding effect, growth inhibition)
Procedure: 24-well microtiter plates with artificial diet were treated with aqueous test solutions prepared from 10′000 ppm DMSO stock solutions by pipetting. After drying, the plates were infested with L2 larvae (6-8 per well). The samples were assessed for mortality, anti-feeding effect, and growth inhibition in comparison to untreated samples 6 days after infestation. Control of Chilo suppressalis by a test sample is given when at least one of the categories mortality, anti-feedant effect, and growth inhibition is higher than the untreated sample.

[2] = test system: Myzus persicae (Green Peach Aphid); assay: Activity against Myzus persicae (green peach aphid), feeding/contact activity; settings: 144 h, application rate of 200 ppm, mixed ages, 6 days after infestation
Procedure: Sunflower leaf discs were placed onto agar in a 24-well microtiter plate and sprayed with aqueous test solutions prepared from 10′000 ppm DMSO stock solutions. After drying, the leaf discs were infested with an aphid population of mixed ages. The samples were assessed for mortality 6 days after infestation.

[3] = test system: Carpocapsa (Cydia) Pomonella (Codling Moth); assay: Activity against Carpocapsa (Cydia) pomonella (codling moth), larvicide, feeding/contact; settings: 336 h, application rate of 12.5 ppm, L1 larvae, 14 days after infestation, read-out: effect in at least one of the two categories (mortality or growth inhibition)
Procedure: Diet cubes coated with paraffin were sprayed with diluted test solutions in an application chamber. After drying off the treated cubes (10 replicates) were infested with 1 L1 larvae. Samples were incubated at 26-27° C. and checked 14 days after infestation for mortality and growth inhibition. The following compounds gave an effect of at least 80% in at least one of the two categories (mortality or growth inhibition) at an application rate of 12.5 ppm: P1, P2, P3, P5, P9, P10, P11, P12, P14, P17, P19, P20, P21, P23, P24, P30, P31.

[4] = test system: Nilaparvata lugens (Brown Plant Hopper); assay: Activity against Nilaparvata lugens (brown plant hopper), larvicide, systemic into water; settings: 168 h, application rate of 12.5 ppm, N3 nymphs, 7 days after infestation
Procedure: Larvicide, systemic into water Rice plants cultivated in a nutritive solution were treated with the diluted test solutions into nourishing cultivation system. 1 day after application plants were infested with ˜20 N3 nymphs. 7 days after infestation samples were assessed for mortality and growth regulation.

[5] = test system: Plutella xylostella (Diamond Back Moth); assay: Activity against Plutella xylostella (diamond back moth), artificial diet; settings: 192 h, application rate of 200 ppm, eggs, 8 days after infestation, read-out: effect in at least one of the two categories (mortality or growth inhibition)
Procedure: 24-well microtiter plates with artificial diet were treated with aqueous test solutions prepared from 10′000 ppm DMSO stock solutions by pipetting. After drying, Plutella eggs were pipetted through a plastic stencil onto a gel blotting paper and the plate was closed with it. The samples were assessed for mortality and growth inhibition in comparison to untreated samples 8 days after infestation.

[6] = test system: Diabrotica Balteata (Corn Root Worm); assay: Activity against Diabrotica balteata (corn root worm), maize sprouts sprayed; settings: 96 h, application rate of 200 ppm, L2 larvae, 4 days after infestation, read-out: effect in at least one of the two categories (mortality or growth inhibition)
Procedure: Maize sprouts placed onto an agar layer in 24-well microtiter plates were treated with aqueous test solutions prepared from 10′000 ppm DMSO stock solutions by spraying. After drying, the plates were infested with L2 larvae (6 to 10 per well). The samples were assessed for mortality and growth inhibition in comparison to untreated samples 4 days after infestation.

[7] = test system: Spodoptera littoralis (Egyptian Cotton Leaf Worm); assay: Activity against Spodoptera littoralis (Egyptian cotton leaf worm), cotton leaf discs sprayed; settings: foliar, 72 h, application rate of 200 ppm, L1 larvae, 3 days after infestation, read-out: control (mortality, anti-feeding effect, growth inhibition)
Procedure: Cotton leaf discs were placed onto agar in 24-well microtiter plates and sprayed with aqueous test solutions prepared from 10′000 ppm DMSO stock solutions. After drying the leaf discs were infested with five L1 larvae. The samples were assessed for mortality, anti-feeding effect, and growth inhibition in comparison to untreated samples 3 days after infestation. Control of Spodoptera littoralis by a test sample is given when at least one of the categories mortality, anti-feedant effect, and growth inhibition is higher than the untreated sample.

CCS(=O)(=O)c1ccc(C2CC2)nc1-c1cc2c(cn1)N(CC(F)(F)C(F)(F)F)C(=O)OC2 [P17, 6-(6-cyclopropyl-3-ethylsulfonyl-2-pyridyl)-1-(2,2,3,3,3-pentafluoropropyl)-4H-pyrido[3,4-d][1,3]oxazin-2-one]
≥ 80%: mortality at 200 ppm [1] | mortality at 200 ppm [2] | percent effect (mortality or growth inhibition) at 12.5 ppm [3] | mortality at 12.5 ppm [4] | percent effect (mortality or growth inhibition) at 200 ppm [5] | percent effect (mortality or growth inhibition) at 200 ppm [6] | mortality at 200 ppm [7]

CCS(=O)(=O)c1cc(C(F)(F)F)cnc1-c1cc2c(cn1)N(CC(F)(F)C(F)(F)F)C(=O)CC2 [P9, 6-[3-ethylsulfonyl-5-(trifluoromethyl)-2-pyridyl]-1-(2,2,3,3,3-pentafluoropropyl)-3,4-dihydro-1,7-naphthyridin-2-one]
≥ 80%: mortality at 200 ppm [1] | mortality at 200 ppm [2] | percent effect (mortality or growth inhibition) at 12.5 ppm [3] | mortality at 12.5 ppm [4] | percent effect (mortality or growth inhibition) at 200 ppm [5] | percent effect (mortality or growth inhibition) at 200 ppm [6] | mortality at 200 ppm [7]

CCS(=O)(=O)c1ccc(C2CC2)nc1-c1cc2c(cn1)N(CC(F)(F)C(F)(F)F)C(=O)CC2 [P14, 6-(6-cyclopropyl-3-ethylsulfonyl-2-pyridyl)-1-(2,2,3,3,3-pentafluoropropyl)-3,4-dihydro-1,7-naphthyridin-2-one]
≥ 80%: mortality at 200 ppm [1] | mortality at 200 ppm [2] | percent effect (mortality or growth inhibition) at 12.5 ppm [3] | mortality at 12.5 ppm [4] | percent effect (mortality or growth inhibition) at 200 ppm [5] | percent effect (mortality or growth inhibition) at 200 ppm [6] | mortality at 200 ppm [7]

CCS(=O)(=O)c1cc(OCC(C)(F)F)cnc1-c1cc2c(cn1)N(CC(F)(F)C(F)(F)F)C(=O)OC2 [P31, 6-[5-(2,2-difluoropropoxy)-3-ethylsulfonyl-2-pyridyl]-1-(2,2,3,3,3-pentafluoropropyl)-4H-pyrido[3,4-d][1,3]oxazin-2-one]
≥ 80%: mortality at 200 ppm [1] | percent effect (mortality or growth inhibition) at 12.5 ppm [3] | mortality at 12.5 ppm [4] | percent effect (mortality or growth inhibition) at 200 ppm [5] | percent effect (mortality or growth inhibition) at 200 ppm [6] | mortality at 200 ppm [7]

CCS(=O)(=O)c1cc(C2CC2)cnc1-c1cc2c(cn1)N(CC(F)(F)C(F)(F)F)C(=O)CC2 [P19, 6-(5-cyclopropyl-3-ethylsulfonyl-2-pyridyl)-1-(2,2,3,3,3-pentafluoropropyl)-3,4-dihydro-1,7-naphthyridin-2-one]
≥ 80%: mortality at 200 ppm [1] | percent effect (mortality or growth inhibition) at 12.5 ppm [3] | mortality at 12.5 ppm [4] | percent effect (mortality or growth inhibition) at 200 ppm [5] | percent effect (mortality or growth inhibition) at 200 ppm [6] | mortality at 200 ppm [7]

CCS(=O)(=O)c1cc(C(C)(C)F)cnc1-c1cc2c(cn1)N(CC(F)(F)C(F)(F)F)C(=O)OC2 [P30, 6-[3-ethylsulfonyl-5-(1-fluoro-1-methyl-ethyl)-2-pyridyl]-1-(2,2,3,3,3-pentafluoropropyl)-4H-pyrido[3,4-d][1,3]oxazin-2-one]
≥ 80%: mortality at 200 ppm [1] | percent effect (mortality or growth inhibition) at 12.5 ppm [3] | mortality at 12.5 ppm [4] | percent effect (mortality or growth inhibition) at 200 ppm [5] | percent effect (mortality or growth inhibition) at 200 ppm [6] | mortality at 200 ppm [7]
